Results on four molecules are retold here after BindingDB's records for doi:10.1038/nchembio.307 (Harvard Medical School, 2010).

By IC50 is commonly meant the concentration needed to halve the response being measured. A low value points to greater potency in that assay.

Structures are written as SMILES.

The test concerns the target T1, Amine oxidase [flavin-containing] B (Homo sapiens, UniProt P27338).
T1 sequence (P27338 whole entry): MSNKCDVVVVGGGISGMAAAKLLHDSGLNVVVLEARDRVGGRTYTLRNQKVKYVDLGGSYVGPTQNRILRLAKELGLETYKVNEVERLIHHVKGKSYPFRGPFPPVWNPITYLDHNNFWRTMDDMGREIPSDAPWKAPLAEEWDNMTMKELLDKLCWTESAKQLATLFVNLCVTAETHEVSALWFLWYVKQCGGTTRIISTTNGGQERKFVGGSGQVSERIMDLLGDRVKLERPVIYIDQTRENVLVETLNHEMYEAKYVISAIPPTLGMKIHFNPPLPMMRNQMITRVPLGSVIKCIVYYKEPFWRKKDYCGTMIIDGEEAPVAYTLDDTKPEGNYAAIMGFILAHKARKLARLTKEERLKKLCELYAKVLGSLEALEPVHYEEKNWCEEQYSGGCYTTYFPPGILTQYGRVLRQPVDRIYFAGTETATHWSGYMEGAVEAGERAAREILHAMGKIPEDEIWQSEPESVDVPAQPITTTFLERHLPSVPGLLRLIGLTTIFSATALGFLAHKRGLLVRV
The test can be described thus: MAO-B Enzymatic Assay. From the text:
Momoamine oxidase type B(MAO-B) activity in vitro assay using molecules that caused a photomotor response (PMR) "magnitude stimulant' (MAG) phenotype characterized by increased PMR excitation magnitude.
Take `CC(C)(C)OC(=O)NCCC(=O)Oc1ccc(C(=O)Oc2ccc3c4c(c(=O)oc3c2)CCC4)cc1Cl` [MAG-3]: 1 µM corresponded to half-maximal inhibition (IC50).

In turn, `O=C(CNC(=O)OCc1ccccc1)Oc1ccc(C(=O)Oc2ccc3c4c(c(=O)oc3c2)CCC4)cc1Cl` [MAG-6] returned an IC50 of 10 µM.

As for `CC(C)(C)OC(=O)NCC(=O)Oc1ccc(C(=O)Oc2ccc3c4c(c(=O)oc3c2)CCC4)cc1Cl` [MAG-7], the IC50 turned out to be 0.5 µM.

`CC(C)(C)OC(=O)NCCC(=O)Oc1ccc(C(=O)Oc2ccc3c4c(c(=O)oc3c2)CCCC4)cc1Cl` [MAG-5] had a concentration for half-maximal inhibition (IC50) of 10 µM.
